Test results from PMC9069370, “Integrated Design of a Membrane‐Lytic Peptide‐Based Intravenous Nanotherapeutic Suppresses Triple‐Negative Breast Cancer” (Advanced Science, 2022).
Peptide text beside a SMILES is read from it.

What was measured:
[1] = tested on: HMLER; experiment: cells; type: cell-based, human; details: 72 h
Text: (§1) […], and MCF-10A cells were maintained in MEGM with supplements and growth factors bovine pituitary extract, hydrocortisone, human epidermal growth factor, insulin, and gentamicin/amphotericin-B.

[2] = tested on: HMLER‐shEcad; experiment: cells; type: cell-based, human; details: 72 h
Text: as §1

[3] = tested on: MCF‐10A; experiment: cells; type: cell-based, human; details: 72 h
Text: as §1

[4] = tested on: U2OS; type: cell-based, human; details: 72 h
[5] = tested on: HEK293T; experiment: cells; type: cell-based, human; details: 72 h
[6] = Tryptophan fluorescent binding assay; details: tryptophan fluorescence; 50 µM peptide, lipid titrated 0-5000 µM; phosphate buffered saline 1X, pH 7.4; values as lipid per peptide
Method: 50 µM ACP peptides and varied concentrations (concentrations: 0, 25, 50, 100, 150, 200, 250, 500, 1250, and 2500 µM) of POPC or POPC:POPG (3:1 ratio) large unilamellar vesicles were prepared in 10 mM phosphate buffer (pH 7.0). The solutions were measured after 1 h of incubation. Excitation was fixed at 280 nm (slit 9 nm) and emission was collected from 300 to 450 nm (slit 9 nm). The spectra were recorded using Cytation 5 Cell Imaging Multi‐Mode Reader from BioTek and were averaged by three scans.
Lipid Concentration-induced
Name Sequence† 50% Peptide Binding (L/P)
Extended Data Table 3 | Tryptophan binding assay. […]
peptide binding onto liposome. 50 µM peptides were fixed and incubated with titrated lipid (POPC vesicle […]
phosphate buffered saline (1X, pH 7.4). The lipid concentration that causes 50 % peptide binding was determined using tryptophan fluorescent binding assay and the values are shown as lipid per peptide.

[7] = ANTS/DPX liposome leakage assay; details: 0.5 mM vesicles, peptide 0-20 µM, 3 h incubation, lipid per peptide; for Peptide Concentration-induced 50 % ANTS/DPX leakage at pH 4.8 (L/P), 3POPC/1POPG Vesicle / Peptide Concentration-induced 50 % ANTS/DPX leakage at pH 4.8 (L/P), POPC Vesicle: HCl-adjusted PBS 1X pH 4.8; for Peptide Concentration-induced 50 % ANTS/DPX leakage at pH 7.4 (L/P), 3POPC/1POPG Vesicle / Peptide Concentration-induced 50 % ANTS/DPX leakage at pH 7.4 (L/P), POPC Vesicle: PBS 1X pH 7.4, high ratio = more potent
Method: Vesicle preparation: 5 mM ANTS and 12.5 mM DPX were entrapped in 0.1 µm diameter extruded vesicles (either POPC or POPC/POPG at a ratio of 3:1) with lipids. Gel filtration chromatography of Sephadex G‐100 was used to remove external free ANTS/DPX from LUVs with entrapped contents. LUVs were diluted to 0.5 mM and used to measure the leakage activity by the addition of aliquots of ACPs. Leakage was measured after 3 h incubation. 10% Triton was used as the positive control to measure the maximum leakage of the vesicle. Fluorescence emission spectra were recorded using excitation and emission wavelength of 350 and 510 nm for ANTS/DPX using a BioTek Synergy H1 Hybrid Multi‐Mode Reader.
Peptide Concentration-induced Peptide Concentration-induced
Name Sequence† 50 % ANTS/DPX leakage 50 % ANTS/DPX leakage at pH 7.4 (L/P) at pH 4.8 (L/P)
POPC Vesicle 3POPC/1POPG Vesicle POPC Vesicle 3POPC/1POPG Vesicle […]
Extended Data Table 4 | Peptide concentration-induced 50 % ANTS/DPX liposome leakage. 0.5 mM POPC and 3POPC/1POPG vesicles were fixed and incubated with titrated peptide concentration (0, 0.02, […]
hydrochloric acid-adjusted phoshate buffered saline (1X, pH 4.8). The values are shown as lipid per

Structure (SMILES) | IC50 [1] [µM] | IC50 [2] [µM] | IC50 [3] [µM] | IC50 [4] [µM] | IC50 [5] [µM] | Lipid Concentration-induced 50% Peptide Binding (L/P), 3POPC/1POPG Vesicle [6] [L/P] | Lipid Concentration-induced 50% Peptide Binding (L/P), POPC Vesicle [6] [L/P] | Peptide Concentration-induced 50 % ANTS/DPX leakage at pH 4.8 (L/P), 3POPC/1POPG Vesicle [7] [L/P] | Peptide Concentration-induced 50 % ANTS/DPX leakage at pH 4.8 (L/P), POPC Vesicle [7] [L/P] | Peptide Concentration-induced 50 % ANTS/DPX leakage at pH 7.4 (L/P), 3POPC/1POPG Vesicle [7] [L/P] | Peptide Concentration-induced 50 % ANTS/DPX leakage at pH 7.4 (L/P), POPC Vesicle [7] [L/P]
CC(C)C[C@H](NC(=O)CN)C(=O)N[C@@H](CC(C)C)C(=O)N[C@@H](CC(=O)O)C(=O)N[C@@H](CC(C)C)C(=O)N[C@@H](CC(C)C)C(=O)N[C@@H](Cc1c[nH]cn1)C(=O)N[C@@H](CC(C)C)C(=O)N[C@@H](CC(C)C)C(=O)N[C@@H](CC(C)C)C(=O)N[C@@H](Cc1c[nH]cn1)C(=O)N[C@@H](C)C(=O)N[C@@H](C)C(=O)NCC(=O)N[C@@H](Cc1c[nH]c2ccccc12)C(N)=O [DHH] (H-GLLDLLHLLLHAAGW-NH2) | 21.4 ± 2.47 | 11.9 ± 0.14 | > 200 | 55.9 ± 18.9 | 6.4 ± 0.42 | 0.28 | 0.67 | 98 | 106 | 692 | 684
CC(C)C[C@H](NC(=O)CN)C(=O)N[C@@H](CC(C)C)C(=O)N[C@@H](CC(=O)O)C(=O)N[C@@H](CC(C)C)C(=O)N[C@@H](CC(C)C)C(=O)N[C@@H](CCCCN)C(=O)N[C@@H](CC(C)C)C(=O)N[C@@H](CC(C)C)C(=O)N[C@@H](CC(C)C)C(=O)N[C@@H](CCC(=O)O)C(=O)N[C@@H](C)C(=O)N[C@@H](C)C(=O)NCC(=O)N[C@@H](Cc1c[nH]c2ccccc12)C(N)=O [DKE] (H-GLLDLLKLLLEAAGW-NH2) | 2.1 | 1.57 ± 0.33 | 4.75 ± 0.49 | 9.93 ± 0.25 | 7.8 ± 1.41 | 0.46 | 0.56 | 469 | 21 | 411 | 747
CC(C)C[C@H](NC(=O)CN)C(=O)N[C@@H](CC(C)C)C(=O)N[C@@H](CC(=O)O)C(=O)N[C@@H](CC(C)C)C(=O)N[C@@H](CC(C)C)C(=O)N[C@@H](CCCCN)C(=O)N[C@@H](CC(C)C)C(=O)N[C@@H](CC(C)C)C(=O)N[C@@H](CC(C)C)C(=O)N[C@@H](Cc1c[nH]cn1)C(=O)N[C@@H](C)C(=O)N[C@@H](C)C(=O)NCC(=O)N[C@@H](Cc1c[nH]c2ccccc12)C(N)=O [DKH] (H-GLLDLLKLLLHAAGW-NH2) | 3.45 ± 0.07 | 2.8 ± 0.28 | 7.05 ± 0.21 | 21.1 ± 3.01 | 6.15 ± 1.34 | 0.46 | 10.00 | 58 | 41 | 274 | 614
CC(C)C[C@H](NC(=O)CN)C(=O)N[C@@H](CC(C)C)C(=O)N[C@@H](CC(=O)O)C(=O)N[C@@H](CC(C)C)C(=O)N[C@@H](CC(C)C)C(=O)N[C@@H](CCCCN)C(=O)N[C@@H](CC(C)C)C(=O)N[C@@H](CC(C)C)C(=O)N[C@@H](CC(C)C)C(=O)N[C@@H](CCCCN)C(=O)N[C@@H](C)C(=O)N[C@@H](C)C(=O)NCC(=O)N[C@@H](Cc1c[nH]c2ccccc12)C(N)=O [DKK] (H-GLLDLLKLLLKAAGW-NH2) | 1.95 ± 0.35 | 1.2 ± 0.14 | 2.57 ± 0.52 | 10.4 ± 1.7 | 3.4 ± 0.28 | 6.88 | 2.75 | 227 | 47 | 156 | 463
